Laboratory results: patent US4758557A, “Cephalosporin derivatives and bactericides containing the same” (Meiji Seika Kaisha, Ltd., priority 1985, dated 1988)
≈ marks a conversion by molar mass, not a printed value. Where two headings read alike, the source gives them in different places.

Key:
Test in all cases: MIC in agar plate culture-dilution assay
Type in all cases: cell-based
[1] = tested on: Proteus vulgaris GN-76; details: GN76
Excerpt: (§1) The compounds of the formula (I) and salts thereof of the present invention are new, and have high and broad antibacterial activity capable of inhibiting the growth of pathogenic microorganisms of a broad range including gram-positive and gram-negative bacteria. In order to show the usability of the compounds of the formula (I), the antibacterial activity of some typical compounds of the formula (I) was actually measured, and the results are given in the following Table-1.
(§2) MIC in agar plate culture-dilution assay (Y/ml)

[2] = tested on: Proteus rettgeri GN-624; details: Providencia rettgeri, GN624
Excerpt: as §1, §2

[3] = tested on: Bacillus subtilis ATCC 6633; details: ATCC6633
Excerpt: as §1, §2

[4] = tested on: Staphylococcus aureus Smith (1)
Excerpt: as §1, §2

[5] = tested on: Serratia marcescens No. 1
Excerpt: as §1, §2

[6] = tested on: Pseudomonas maltophilia M-0627; details: Stenotrophomonas maltophilia, M0627
Excerpt: as §1, §2

[7] = tested on: Klebsiella pneumoniae GN-69; details: GN69
Excerpt: as §1, §2

[8] = tested on: Staphylococcus aureus 209P JC-1
Excerpt: as §1, §2

[9] = tested on: Pseudomonas aeruginosa IAM-1007; details: IAM1007
Excerpt: as §1, §2

[10] = tested on: Enterobacter cloacae GN-7471; details: GN7471
Excerpt: as §1, §2

[11] = tested on: Citrobacter freundii GN-346; details: GN346
Excerpt: as §1, §2

[12] = tested on: Pseudomonas aeruginosa M-0148; details: M0148
Excerpt: as §1, §2

[13] = tested on: Pseudomonas aeruginosa E-2; details: E2
Excerpt: as §1, §2

[14] = tested on: Escherichia coli NIHJ JC-2; details: NIHJJC2
Excerpt: as §1, §2

[15] = Proteus vulgaris GN-76, agar plate culture-dilution, read-out: MIC
[16] = Proteus rettgeri GN-624, agar plate culture-dilution, read-out: MIC
[17] = Bacillus subtilis ATCC 6633, agar plate culture-dilution, read-out: MIC
[18] = Staphylococcus aureus Smith (1), agar plate culture-dilution, read-out: MIC
[19] = Serratia marcescens No. 1, agar plate culture-dilution, read-out: MIC
[20] = Pseudomonas maltophilia M-0627, agar plate culture-dilution, read-out: MIC
[21] = Klebsiella pneumoniae GN-69, agar plate culture-dilution, read-out: MIC
[22] = Staphylococcus aureus 209P JC-1, agar plate culture-dilution, read-out: MIC
[23] = Pseudomonas aeruginosa IAM-1007, agar plate culture-dilution, read-out: MIC
[24] = Enterobacter cloacae GN-7471, agar plate culture-dilution, read-out: MIC
[25] = Citrobacter freundii GN-346, agar plate culture-dilution, read-out: MIC
[26] = Pseudomonas aeruginosa M-0148, agar plate culture-dilution, read-out: MIC
[27] = Pseudomonas aeruginosa E-2, agar plate culture-dilution, read-out: MIC

Row | SMILES | MIC [14] [µg/mL] | MIC [1, 15] [µg/mL] | MIC [2, 16] [µg/mL] | MIC [3, 17] [µg/mL] | MIC [4, 18] [µg/mL] | MIC [5, 19] [µg/mL] | MIC [6, 20] [µg/mL] | MIC [7, 21] [µg/mL] | MIC [8, 22] [µg/mL] | MIC [9, 23] [µg/mL] | MIC [10, 24] [µg/mL] | MIC [11, 25] [µg/mL] | MIC [12, 26] [µg/mL] | MIC [13, 27] [µg/mL] | further results
1 | CC(C)(O/N=C(\C(=O)N[C@@H]1C(=O)N2C(C(=O)[O-])=C(C[n+]3ccccc3)CS[C@H]12)c1csc(N)n1)C(=O)O [B, ceftazidime, reference compound] | 0.2 (≈ 0.366 µM) |  |  |  |  |  |  |  |  |  |  |  |  |  | MIC ([1]; Proteus vulgaris): 0.05 µg/mL (≈ 0.0915 µM); MIC [2]: 0.39 µg/mL (≈ 0.714 µM); MIC ([3]; Bacillus subtilis): 6.25 µg/mL (≈ 11.4 µM); MIC ([4]; Staphylococcus aureus): 3.13 µg/mL (≈ 5.73 µM); MIC ([5]; Serratia marcescens, NO.1): < 0.025 µg/mL; MIC [6]: 50 µg/mL (≈ 91.5 µM); MIC ([7]; Klebsiella pneumoniae): 0.1 µg/mL (≈ 0.183 µM); MIC ([8]; Staphylococcus aureus, 209P): 3.13 µg/mL (≈ 5.73 µM); MIC ([9]; Pseudomonas aeruginosa): 1.56 µg/mL (≈ 2.85 µM); MIC ([10]; Enterobacter cloacae): 3.13 µg/mL (≈ 5.73 µM); MIC ([11]; Citrobacter freundii): 0.78 µg/mL (≈ 1.43 µM); MIC ([12]; Pseudomonas aeruginosa): 3.13 µg/mL (≈ 5.73 µM); MIC ([13]; Pseudomonas aeruginosa): 1.56 µg/mL (≈ 2.85 µM)
2 | C[n+]1ccc(SCC2=C(C(=O)[O-])N3C(=O)[C@@H](NC(=O)C(NC(=O)c4cc(=O)c(O)cn4O)c4csc(N)n4)[C@H]3SC2)c2c1CCC2 (stereo partly drawn) [Example 14, (6R,7R)7-[(RS)2-(2-Aminothiazol-4yl)-2-(1,5-dihydroxy-4-pyridone-2-carboxamido)acetamido]-3-(2,3-cyclopenteno-1-methylpyridinium-4-yl)-thiomethyl-ceph-3-em-4-carboxylate] | 0.05 (≈ 0.0729 µM) | 0.1 (≈ 0.146 µM) | 0.1 (≈ 0.146 µM) | 6.25 (≈ 9.11 µM) | 1.56 (≈ 2.27 µM) | 0.1 (≈ 0.146 µM) | 6.25 (≈ 9.11 µM) | < 0.025 | 1.56 (≈ 2.27 µM) | < 0.025 | 0.78 (≈ 1.14 µM) | 0.1 (≈ 0.146 µM) | 0.2 (≈ 0.292 µM) | < 0.025 | 
3 | Nc1nc(C(NC(=O)c2cc(=O)c(O)cn2O)C(=O)N[C@@H]2C(=O)N3C(C(=O)O)=C(CSc4ccnc5c4CCC5)CS[C@H]23)cs1 (stereo partly shown) [Example 15] | 0.1 (≈ 0.149 µM) | 0.1 (≈ 0.149 µM) | 0.2 (≈ 0.298 µM) | 3.13 (≈ 4.66 µM) | 3.13 (≈ 4.66 µM) | 0.39 (≈ 0.581 µM) | 0.78 (≈ 1.16 µM) | 0.05 (≈ 0.0744 µM) | 1.56 (≈ 2.32 µM) | 0.2 (≈ 0.298 µM) | 0.78 (≈ 1.16 µM) | 0.2 (≈ 0.298 µM) | 0.2 (≈ 0.298 µM) | < 0.025 | 
4 | Nc1nc(C(NC(=O)c2cc(=O)c(O)cn2O)C(=O)N[C@@H]2C(=O)N3C(C(=O)O)=C(CSc4ccncc4)CS[C@H]23)cs1 (stereo partly drawn) [Example 16, (6R,7R)7-[(RS)2-(2-Aminothiazol-4-yl)-2-(1,5-dihydroxy-4-pyridone-2-carboxamido)acetamido]-3-(pyridine-4-yl)thiomethyl-ceph-3-em-4-carboxylic acid] | 0.1 (≈ 0.158 µM) | 0.39 (≈ 0.617 µM) | 1.56 (≈ 2.47 µM) | 6.25 (≈ 9.89 µM) | 3.13 (≈ 4.96 µM) | 0.39 (≈ 0.617 µM) | 6.25 (≈ 9.89 µM) | 0.2 (≈ 0.317 µM) | 3.13 (≈ 4.96 µM) | < 0.025 | 1.56 (≈ 2.47 µM) | 0.78 (≈ 1.23 µM) | 3.13 (≈ 4.96 µM) | 0.1 (≈ 0.158 µM) | 
5 | Nc1nc(C(NC(=O)c2cc(=O)c(O)cn2O)C(=O)N[C@@H]2C(=O)N3C(C(=O)[O-])=C(CSc4cc[n+](CC(=O)O)c5c4CCC5)CS[C@H]23)cs1 (stereo partly drawn) [Example 17, (6R,7R)7-[(RS)2-(2-Aminothiazol-4-yl)-2-(1,5-dihydroxy-4-pyridone-2-carboxamido)acetamido]-3-(2,3-cyclopenteno-1-carboxylmethylpyridinium-4-yl)-thiomethyl-ceph-3-em-4-carboxylate] | < 0.025 | 0.2 (≈ 0.274 µM) | 0.1 (≈ 0.137 µM) | 3.13 (≈ 4.29 µM) | 3.13 (≈ 4.29 µM) | 0.2 (≈ 0.274 µM) | 6.25 (≈ 8.56 µM) | 0.1 (≈ 0.137 µM) | 3.13 (≈ 4.29 µM) | 0.05 (≈ 0.0685 µM) | 0.78 (≈ 1.07 µM) | 0.78 (≈ 1.07 µM) | 1.56 (≈ 2.14 µM) | 0.1 (≈ 0.137 µM) | 
6 | Cn1c(SCC2=C(C(=O)O)N3C(=O)[C@@H](NC(=O)C(NC(=O)c4cc(=O)c(O)cn4O)c4csc(N)n4)[C@H]3SC2)nnc(O)c1=O (stereo partly drawn) [Example 22, (6R,7R)7-[(RS)2-(2-Aminothaizol-4-yl)-2-(1,5-dihydroxy-4-pyridone-2-carboxamido)acetamido]-3-(4,5-dihydro-4-methyl-5-oxo-6-hydroxy-1,2,4-triazin-3-yl)thiomethyl-ceph-3-em-4-carboxylic acid] | 0.05 (≈ 0.0736 µM) | 0.1 (≈ 0.147 µM) | 0.2 (≈ 0.294 µM) | 3.13 (≈ 4.61 µM) | 3.13 (≈ 4.61 µM) | 0.2 (≈ 0.294 µM) | 1.56 (≈ 2.3 µM) | 0.05 (≈ 0.0736 µM) | 3.13 (≈ 4.61 µM) | 0.39 (≈ 0.574 µM) | 0.78 (≈ 1.15 µM) | 0.39 (≈ 0.574 µM) | 0.39 (≈ 0.574 µM) | 0.1 (≈ 0.147 µM) | 
7 | Nc1nc(C(NC(=O)c2cc(=O)c(O)cn2O)C(=O)N[C@@H]2C(=O)N3C(C(=O)O)=C(CSc4cnns4)CS[C@H]23)cs1 (stereo partly drawn) [Example 25, (6R,7R)7-[(RS)2-(2-Aminothiazol-4-yl)-2-(1,5-dihydroxy-4-pyridone-2-carboxamido)acetamido]-3-(1,2,3-thiadiazol-5-yl)thiomethyl-ceph-3-em-4-carboxylic acid] | 0.05 (≈ 0.0783 µM) | 0.1 (≈ 0.157 µM) | 3.13 (≈ 4.9 µM) | 3.13 (≈ 4.9 µM) | 6.25 (≈ 9.79 µM) | 0.2 (≈ 0.313 µM) | 1.56 (≈ 2.44 µM) | 0.05 (≈ 0.0783 µM) | 3.13 (≈ 4.9 µM) | 0.1 (≈ 0.157 µM) | 6.25 (≈ 9.79 µM) | 0.78 (≈ 1.22 µM) | 0.2 (≈ 0.313 µM) | 0.05 (≈ 0.0783 µM) | 
8 | Nc1nc(C(NC(=O)c2cc(=O)c(O)cn2O)C(=O)N[C@@H]2C(=O)N3C(C(=O)O)=C(CSc4nc5ccccc5s4)CS[C@H]23)cs1 (stereo partly drawn) [Example 26, (6R,7R)7-[(RS)2-(2-Aminothiazol-4-yl)-2-(1,5-dihydroxy-4-pyridone-2-carboxamido)acetamido]-3-(benzothiazol-2-yl)thiomethyl-ceph-3-em-4-carboxylic acid] | 0.1 (≈ 0.145 µM) | 0.2 (≈ 0.291 µM) | 3.13 (≈ 4.55 µM) | 3.13 (≈ 4.55 µM) | 3.13 (≈ 4.55 µM) | 0.78 (≈ 1.13 µM) | 3.13 (≈ 4.55 µM) | 0.05 (≈ 0.0727 µM) | 3.13 (≈ 4.55 µM) | 0.2 (≈ 0.291 µM) | 1.56 (≈ 2.27 µM) | 0.39 (≈ 0.567 µM) | 0.2 (≈ 0.291 µM) | 0.05 (≈ 0.0727 µM) | 
